The values below come from patent US20250066347A1, “SUBSTITUTED THIAZOLIDINEDIONE DERIVATIVE COMPOUND, AND PHARMACEUTICAL COMPOSITION FOR PREVENTING OR TREATING CANCER, COMPRISING SAME” (MEDIFIC, INC., priority 2021, published 2025).

One series concerns SREBP. Nature of the series: Cell-based assay system using a 6xSRE reporter vector (copGFP intensity) in HOG-GSC-6xSRE-copGFP_HIGH cells. The arrangement: dose or concentration left out as unconfirmed. Conditions: copGFP intensity normalized to DMSO control = 1, 72 hours. The text has this:
First, as shown in (a) of FIG. 1, SRE(5′-ATCACCCCAC-3′) 6 copies which are DNA seCuences to which a transcription factor, SREBP active form bonds were inserted into a minimal CMV promoter 5′ front end of a pGreenfire-Lenti-reporter vector to produce a 6xSRE reporter vector. The 6xSRE reporter vector is a vector system in which a minimal CMV promoter is activated only when SREBP in an activated form bonds to 6xSRE and copGFP is expressed, and after the vector was introduced to HOG-GSC which is a brain tumor stem cell, separation into a GFP high cell and a GFP low cell through FACS sorting was performed. Each of SREBP1a and SREBP1c in an active form was overexpressed in separated GFP-low cells (b of FIG. 1), and it was measured therefrom whether the expression amount of GFP was increased. As a result, it was confirmed that the overexpression of SREBP1a and SREBP1c active forms increased GFP expression by 43.30% and 93.49%, in separated GFP-low cells (c of FIG. 1). The separated GFP-high cells were treated with each of fatostatin and FGH10019 known to inhibit activity of DMSO and SREBP which was a control group to measure a change in the expression amount of GFP, and, as a result, it was confirmed that when treated with known materials, fatostatin and FGH10019, the expression of GFP was inhibited by up to 50% (d of FIG. 1).
HOG-GSC-6xSRE-copGFP_HIGH cells were dispensed into a 96-well plate (Corning) at 5000/well, each well was treated […], and then all wells were photographed every 3 hours for 72 hours in an incubator (ThermoFisher) at […], 5% CO2, using real-time cell imaging equipment (Incucyte) to photograph changes in copGFP intensity.

A short description of series [1]: In vivo brain tissue distribution test after oral administration. Conditions: mouse; for Kp / Cmax / Tmax / AUC(0-inf) / AUC(0-t) / MRT inf / half-life: Hsd:ICR(CD-1R); for Kp: brain/plasma, po, 25 mg/kg, PO; for AUC(0-inf): read-out: AUCinf, Mean; for AUC(0-t): read-out: AUClast, Mean; for MRT inf: read-out: MRTinf, Mean; for half-life: read-out: t1/2, Mean (converted). The method, then: • Test drug: Compound 11 • Excipient: 20% hydroxypropyl-β-cyclodextrin aqueous solution to which 1% DMSO was added 2.2. Experimental system • Mouse, Hsd:ICR(CD-1R), SPF […] (7 weeks old at the time of administration)
After obtaining the mouse, the mouse was quarantined and acclimatized for 2 weeks, and used in the experiment. An administration dose was 25 mg/kg. A dosage for each individual was calculated based on the weight after fasting for 15 hours (on the day of administration), and the drug was orally administered once using a disposable syringe (1 mL) with a zonde for oral administration attached.
After respiratory anesthesia, blood was collected by heart blood collection with a 1 mL syringe, placed in a K2-EDTA-treated tube, and centrifuged at 8,000 RPM at 4° C. for 20 minutes, and plasma was collected from a supernatant. Heat perfusion was performed on animals after blood collection, a brain tissue was harvested, and olfactory bulb, cerebellum, pones, and medulla oblongata were removed from the harvested brain tissue. The collected plasma and brain tissue were frozen and stored at −80° C. until analysis.
In order to secure a sufficient amount of analysis sample, a mixed (pulled) sample of brain tissue and blood secured from two individuals was used (securing three repetitive samples from 6 animals in one collection). Blood plasma and brain tissue were collected from a mouse of the same week of age to which the compound was not administered, and used as a blank blood plasma and a blank tissue in the material concentration analysis.
190 μL of acetonitrile was added to 10 μL of a blood plasma sample including 200 ng/mL of the internal standard material and vortexed at 2,500 RPM for 60 seconds. Thereafter, centrifugation was performed at 12,000 RPM for 5 minutes, and 50 μL of a supernatant was taken and mixed with 50 μL of acetonitrile. 2 μL thereof was injected into LC-MS/MS.
The brain tissue was weighed, third distilled water equivalent to 4 times (w/v=¼) the weight was added, and homogenization was performed using a homogenizer. 10 μL of the homogenized tissue mixed solution was taken, 190 μL of acetonitrile including 50 ng/mL of the internal standard material was added, and vortexing was performed at 2,500 RPM for 60 seconds. Thereafter, centrifugation was performed at 12,000 RPM for 10 minutes, and 2 μL of a supernatant was taken and injected into LC-MS/MS.
PK parameter was calculated with a Non-compartmental analysis model using a PKSolver2.0 software.

Read-outs that look alike come from different tables or passages of the source.

`CC(C)(C)c1ccc(-c2cc(/C=C3\SC(=O)NC3=O)ccn2)cc1` [Compound 11, (Z)-5-((2-(4-(tert-butyl)phenyl)pyridin-4-yl)methylene)thiazolidine-2,4-dione] yielded an activity in the series with SREBP of 4.6%. Moreover, the Kp in series [1] (read-out: Brain-to-plasma ratio by AUC (brain/plasma)) came out at 0.543. Also, the Kp in series [1] (read-out: Brain-to-plasma ratio by concentration (brain/plasma), Average) was 0.47. Besides, the Kp in series [1] (read-out: Brain-to-plasma ratio by concentration (brain/plasma), Max) was determined as 0.777. Further, in series [1] (Brain (25 mg/kg, PO)), the highest level (Cmax) was 12600 ng/mL, the Tmax was found to be 3 h, the AUC(0-inf) came to 96.8 µg·h/mL and the AUC(0-t) came to 96 µg·h/mL. Moreover, in series [1] (Brain (25 mg/kg, PO)), the MRT inf stood at 6 h and the half-life was 2.83 h. Further, in series [1] (Plasma (25 mg/kg, PO)), the Cmax was 20400 ng/mL, the Tmax stood at 1.33 h, the AUC(0-inf) was found to be 180 µg·h/mL and the AUC(0-t) is 177 µg·h/mL. In series [1] (Plasma (25 mg/kg, PO)), the MRT inf was determined as 6.95 h; the half-life was 3.08 h; the “Clobs, Mean” value is recorded as 2.320 mL/min/kg; the “Vzobs, Mean” value is recorded as 0.617 L/kg.
